Laboratory results: patent US20110306606A1, “NOVEL 2,6-SUBSTITUTED-3-NITROPYRIDINE DERIVATIVE, METHOD FOR PREPARING SAME, AND PHARMACEUTICAL COMPOSITION INCLUDING SAME” (priority 2008, published 2011)
Like-named read-outs stand apart in the source and are kept apart here.

Columns and labels:
[1] = tested on: Osteoblasts (Calvarial cells); test: Cytotoxicity test (MTT); details: 1 μM compound, 72 hours, in comparison with vehicle control
Method: (§1) For the preparation of osteoblasts (Calvarial cells), the calvaria were aseptically dissected from 1 to 2-day-old neonatal ICR mice and subjected to continuous reaction with a 0.2% collagenase solution to separate osteoblasts. The cell-suspended supernatant was centrifuged to recover osteoblasts which were grown to full confluence in an α-MEM supplemented with 10% FBS and then diluted to a desired cell density for use in the experiment.
(§2) Cytotoxicity of the compounds of the present invention was evaluated by carrying out the experiment described below.
(§3) The vehicle control group was established to contain 0.2% DMSO. 100 μL/well of the diluted drugs were dispensed into 96-well plates to which osteoblasts (calvarial cells) prepared in Experimental Example 1 were then added at a density of 1.0×10^4 cells/100 μL/well. Here, the final compound concentration in the cell culture was 1 μM, and the vehicle control group contained 0.1% DMSO. The cells were cultured in a 5% CO2 inhibitor at 37° for 72 hours. 25 μL of 3-(4,5-dimethyl-2-thiazolyl)-2,5-diphenyl-2H-tetrazolium bromide (MTT) dissolved in PBS (2 mg/mL) was added to each cell culture 4 hours before the end of culture. After completion of the reaction, the plates were centrifuged, the media were discarded, and 100 μL of formazan was added and dissolved in dimethyl sulfoxide (DMSO). Finally, the absorbance of the developed plates was measured at 540 nm. The cell viability was expressed as % concentration in comparison with the vehicle control group.

[2] = tested on: Osteoblasts (Calvarial cells); test: Alkaline phosphatase (ALP) activity in osteoblasts (Calvarial cells); format: cell-based, mice; details: 1 μM compound, 3 days
Method: Differentiation and activity of osteoblasts were indirectly evaluated by measuring an ALP activity having a close relationship with osteogenesis.
Osteoblasts (Calvarial cells) prepared in Experimental Example 1 and MC3T3-E1 cells (available from RIKEN Cell Bank, Japan) were collected in α-MEM supplemented with 10% FBS, followed by cell counting. The cells were dispensed into 24-well cultureware at a density of 2×10^4 cells/well. After culturing of the cells for 24 hours, the culture media were discarded and replaced with fresh media in which test compounds were diluted to a concentration of 1 μM (1 mL/well). In addition, the vehicle control group containing 0.1% DMSO was also treated. […] When the experiment was terminated, the supernatant was removed and the cells were washed three times with cold phosphate buffer at 4°. 0.2% Triton X-100 was added to the washed cells which were then subjected to three cycles of freezing at −70° and thawing at room temperature for the complete lysis of cells. The cell extracts were pooled and centrifuged to collect the cell supernatant which was used for the measurement of ALP activity and proteins. The protein concentration was measured using a BCA assay kit (manufactured by Sigma-Aldrich). For the measurement of ALP activity, p-nitrophenylphosphate was added to the cell supernatant which was then incubated at 37° for 30 minutes, and the reaction was terminated with the addition of 50 μL of 0.2N sodium hydroxide. The standard curve was plotted at the absorbance of 405 nm using p-nitrophenol as a standard material and then the absorbance of test materials thus reacted was measured to determine the production amount of p-nitrophenol.
The ALP activity was calculated by dividing the amount of p-nitrophenol produced from each test material by the protein amount and the reaction time. Therefore, the unit of ALP activity was given in terms of p-nitrophenol/μg protein/min. The results are given in Tables 28-1 and 28-2 where the ALP activity unit of each test material was given in terms of % change through the comparison between the individual test materials and the vehicle control group.

[3] = tested on: Osteoblasts (Calvarial cells); details: ICR, mouse, 72 h, 1 μM
Method: as §1, §2, §3

SMILES	Cell viability (%) Calvarial cell [1] [%]	ALP activity (1 μM, % of Control) Calvarial cell [2]	Cell viability (%) Calvarial cell [3] [%]
CC1=NCCN1c1ccc([N+](=O)[O-])c(Nc2ccc(C)cc2)n1 [Compound 6, 2-(4-methylphenylamino)-6-[(2-methyl-4,5-dihydro)imidazol-1-yl]-3-nitropyridine]	94	116 % of Control	
CC1=NCCN1c1ccc([N+](=O)[O-])c(Nc2ccc(C(C)(C)C)cc2)n1 [Compound 35, 2-[4-(t-butyl)phenylamino]-6-[(2-methyl-4,5-dihydro)imidazol-1-yl]-3-nitropyridine]	96	132 % of Control	
CCN(CCO)c1ccc([N+](=O)[O-])c(Nc2ccc(C#N)cc2)n1 [Compound 51, 2-(4-cyanophenylamino)-6-[(N-ethyl-2-hydroxy)ethylamino]-3-nitropyridine]	100	116 % of Control	
CC(C)Nc1ccc([N+](=O)[O-])c(Nc2ccc(N3CCOCC3)cc2)n1 [Compound 109, 2-(4-morpholinophenylamino)-6-(isopropylamino)-3-nitropyridine]			101
CC(C)c1nccn1-c1ccc([N+](=O)[O-])c(Nc2ccc(N3CCOCC3)cc2)n1 [Compound 114, 2-(4-morpholinophenylamino)-6-[(2-isopropyl)imidazol-1-yl]-3-nitropyridine]			92
O=[N+]([O-])c1ccc(NCc2ccncc2)nc1Nc1ccc(N2CCOCC2)cc1 [Compound 116, 2-(4-morpholinophenylamino)-6-[(4-pyridyl)methylamino]-3-nitropyridine]			89
CC(C)(C)Nc1ccc([N+](=O)[O-])c(Nc2ccc(N3CCOCC3)cc2)n1 [Compound 117, 2-(4-morpholinophenylamino)-6-(t-butylamino)-3-nitropyridine]			90
CCN(CCO)c1ccc([N+](=O)[O-])c(Nc2ccc(N3CCOCC3)cc2)n1 [Compound 118, 2-(4-morpholinophenylamino)-6-[(N-ethyl-2-hydroxy)ethylamino]-3-nitropyridine]	102	111 % of Control	
CNc1ccc([N+](=O)[O-])c(Nc2ccc(F)c(F)c2)n1 [Compound 122, 2-[(3,4-difluoro)phenylamino]-6-(methylamino)-3-nitropyridine]			121
CC(C)Nc1ccc([N+](=O)[O-])c(Nc2ccc(F)c(F)c2)n1 [Compound 123, 2-[(3,4-difluoro)phenylamino]-6-(isopropylamino)-3-nitropyridine]			112
CC(C)CNc1ccc([N+](=O)[O-])c(Nc2ccc(F)c(F)c2)n1 [Compound 124, 2-[(3,4-difluoro)phenylamino]-6-(isobutylamino)-3-nitropyridine]			106
O=[N+]([O-])c1ccc(N2CCC(O)CC2)nc1Nc1ccc(F)c(F)c1 [Compound 126, 2-[(3,4-difluoro)phenylamino]-6-(4-hydroxypiperidino)-3-nitropyridine]			95
CN1CCN(c2ccc([N+](=O)[O-])c(Nc3ccc(F)c(F)c3)n2)CC1 [Compound 128, 2-[(3,4-difluoro)phenylamino]-6-(4-methylpiperazin-1-yl)-3-nitropyridine]			87
O=[N+]([O-])c1ccc(N2CCOCC2)nc1Nc1ccc(F)c(F)c1 [Compound 129, 2-[(3,4-difluoro)phenylamino]-6-morpholino-3-nitropyridine]			88
NC1CCN(c2ccc([N+](=O)[O-])c(Nc3ccc(F)c(F)c3)n2)CC1 [Compound 130, 2-[(3,4-difluoro)phenylamino]-6-(4-aminopiperidino)-3-nitropyridine]			101
O=[N+]([O-])c1ccc(NCc2ccncc2)nc1Nc1ccc(F)c(F)c1 [Compound 131, 2-[(3,4-difluoro)phenylamino]-6-[(4-pyridyl)methylamino]-3-nitropyridine]			100

SMILES	Cell viability (%) Calvarial cell [1] [%]	ALP activity (1 μM, % of Control) Calvarial cell [2]	Cell viability (%) Calvarial cell [3] [%]
O=[N+]([O-])c1ccc(N2CCC(O)CC2)nc1Nc1ccc(-c2csc(C3CCCCC3)n2)cc1 [Compound 155, 2-[4-(2-cyclohexylthiazol-4-yl)phenylamino]-6-(4-hydroxypiperidino)-3-nitropyridine]			105
CC(C)c1nccn1-c1ccc([N+](=O)[O-])c(Nc2ccc(-c3csc(C4CCCCC4)n3)cc2)n1 [Compound 157, 2-[4-(2-cyclohexylthiazol-4-yl)phenylamino]-6-[(2-isopropyl)imidazol-1-yl]-3-nitropyridine]			115
O=[N+]([O-])c1ccc(N2CCNCC2)nc1Nc1ccc(-c2csc(C3CCCCC3)n2)cc1 [Compound 158, 2-[4-(2-cyclohexylthiazol-4-yl)phenylamino]-6-(piperazin-1-yl)-3-nitropyridine]			88
O=[N+]([O-])c1ccc(N2CCOCC2)nc1Nc1ccc(-c2csc(C3CCCCC3)n2)cc1 [Compound 160, 2-[4-(2-cyclohexylthiazol-4-yl)phenylamino]-6-morpholino-3-nitropyridine]			105
O=[N+]([O-])c1ccc(NCc2cccnc2)nc1Nc1ccc(-c2csc(C3CCCCC3)n2)cc1 [Compound 162, 2-[4-(2-cyclohexylthiazol-4-yl)phenylamino]-6-[(3-pyridyl)methylamino]-3-nitropyridine]			67
O=[N+]([O-])c1ccc(NCCc2ccccn2)nc1Nc1ccc(-c2csc(C3CCCCC3)n2)cc1 [Compound 164, 2-[4-(2-cyclohexylthiazol-4-yl)phenylamino]-6-[2-(2-pyridyl)ethylamino]-3-nitropyridine]			104
CCCCNc1ccc([N+](=O)[O-])c(Nc2ccc(-c3csc(C4CCCCC4)n3)cc2)n1 [Compound 165, 2-[4-(2-cyclohexylthiazol-4-yl)phenylamino]-6-(n-butylamino)-3-nitropyridine]			102
CNc1ccc([N+](=O)[O-])c(Nc2ccc(N3CCOCC3)c(F)c2)n1 [Compound 191, 2-[(3-fluoro-4-morpholino)phenylamino]-6-(methylamino)-3-nitropyridine]	97	156 % of Control	
CC(C)Nc1ccc([N+](=O)[O-])c(Nc2ccc(N3CCOCC3)c(F)c2)n1 [Compound 192, 2-[(3-fluoro-4-morpholino)phenylamino]-6-(isopropylamino)-3-nitropyridine]	99	113 % of Control	
CNc1ccc([N+](=O)[O-])c(Nc2ccc(N3CCSCC3)c(F)c2)n1 [Compound 203, 2-[(3-fluoro-4-thiomorpholino)phenylamino]-6-(methylamino)-3-nitropyridine]	97	154 % of Control	
CC(C)CNc1ccc([N+](=O)[O-])c(Nc2ccc(N3CCSCC3)c(F)c2)n1 [Compound 205, 2-[(3-fluoro-4-thiomorpholino)phenylamino]-6-(isobutylamino)-3-nitropyridine]	109	132 % of Control	
O=[N+]([O-])c1ccc(N2CCC(O)CC2)nc1Nc1ccc(N2CCSCC2)c(F)c1 [Compound 206, 2-[(3-fluoro-4-thiomorpholino)phenylamino]-6-(4-hydroxypiperidino)-3-nitropyridine]	102	124 % of Control	
CC(C)Nc1ccc([N+](=O)[O-])c(Nc2ccc(N3CCCCC3)c(F)c2)n1 [Compound 224, 2-[(3-fluoro-4-piperidino)phenylamino]-6-(isopropylamino)-3-nitropyridine]	101	125 % of Control	
CC(C)Nc1ccc([N+](=O)[O-])c(Nc2ccc(N3CCC(O)CC3)c(F)c2)n1 [Compound 237, 2-{[3-fluoro-4-(4-hydroxypiperidino)]phenylamino}-6-(isopropylamino)-3-nitropyridine]	99	117 % of Control	
O=[N+]([O-])c1ccc(N2CCC(O)CC2)nc1Nc1ccc(N2CCC(O)CC2)c(F)c1 [Compound 239, 2-{[3-fluoro-4-(4-hydroxypiperidino)]phenylamino}-6-(4-hydroxypiperidino)-3-nitropyridine]	98	130 % of Control	
